According to patent US20160326135A1, “2-HETARYL-PYRIDAZINONE DERIVATIVES AND THEIR USE AS HERBICIDES” (BAYER CROPSCIENCE AKTIENGESELLSCHAFT, priority 2013, published 2016):

Columns and labels:
Format in all cases: in vivo
Matricaria inodora [1] = assay: Pre-emergence herbicidal action against harmful plants; details: application rate 320 g/ha, scored visually after 3 weeks, 100% = plants have died, 0% = like control plants
Description: (§1) Seeds of monocotyledonous and dicotyledonous weed plants and crop plants are laid out in wood-fiber pots in sandy loam and covered with soil. The compounds of the invention, formulated in the form of wettable powders (WP) or as emulsion concentrates (EC), are then applied to the surface of the covering soil in the form of an aqueous suspension or emulsion at a water application rate equating to 600 to 800 I/ha, with addition of 0.2% wetting agent. After the treatment, the pots are placed in a greenhouse and kept under good growth conditions for the trial plants. The damage to the trial plants is scored visually after a trial duration of 3 weeks by comparison with untreated controls (herbicidal activity in percent (%): 100% efficacy=the plants have died, 0% efficacy=like control plants). In this trial, for example, compound no.

Echinochloa crus galli [2] = assay: as above; details: application rate 320 g/ha, scored visually after 3 weeks, 100% = plants have died, 0% = like control plants
Description: as §1

Stellaria media [3] = assay: as above; details: application rate 320 g/ha, scored visually after 3 weeks, 100% = plants have died, 0% = like control plants
Description: as §1

Setaria viridis [4] = assay: as above; details: application rate 320 g/ha, scored visually after 3 weeks, 100% = plants have died, 0% = like control plants
Description: as §1

Amaranthus retroflexus [5] = assay: as above; details: application rate 320 g/ha, scored visually after 3 weeks, 100% = plants have died, 0% = like control plants
Description: as §1

Viola tricolor [6] = assay: as above; details: application rate 320 g/ha, scored visually after 3 weeks, 100% = plants have died, 0% = like control plants
Description: as §1

Veronica persica [7] = assay: as above; details: application rate 320 g/ha, scored visually after 3 weeks, 100% = plants have died, 0% = like control plants
Description: as §1

Abutilon theophrasti = assay: as above; details: application rate 320 g/ha, scored visually after 3 weeks, 100% = plants have died, 0% = like control plants
Description: as §1

Matricaria inodora [8] = assay: Post-emergence herbicidal action against harmful plants; details: application rate 80 g/ha, scored visually after about 3 weeks, 100% = plants have died, 0% = like control plants
Description: (§2) Seeds of monocotyledonous and dicotyledonous weed and crop plants are laid out in sandy loam in wood-fiber pots, covered with soil and cultivated in a greenhouse under good growth conditions. 2 to 3 weeks after sowing, the trial plants are treated at the one-leaf stage. The compounds of the invention, formulated in the form of wettable powders (WP) or as emulsion concentrates (EC), are then sprayed onto the green parts of the plants in the form of an aqueous suspension or emulsion at a water application rate equating to 600 to 800 I/ha, with addition of 0.2% wetting agent. After the trial plants have been left to stand in a greenhouse under optimal growth conditions for about 3 weeks, the efficacy of the formulations is scored visually in comparison to untreated controls (herbicidal action in percent (%): 100% efficacy=the plants have died, 0% efficacy=like control plants). In this trial, for example, compound no.

Echinochloa crus galli [9] = assay: as above; details: application rate 80 g/ha, scored visually after about 3 weeks, 100% = plants have died, 0% = like control plants
Description: as §2

Stellaria media [10] = assay: as above; details: application rate 80 g/ha, scored visually after about 3 weeks, 100% = plants have died, 0% = like control plants
Description: as §2

Setaria viridis [11] = assay: as above; details: application rate 80 g/ha, scored visually after about 3 weeks, 100% = plants have died, 0% = like control plants
Description: as §2

Ipomoea purpurea = assay: as above; details: application rate 80 g/ha, scored visually after about 3 weeks, 100% = plants have died, 0% = like control plants
Description: as §2

Amaranthus retroflexus [12] = assay: as above; details: application rate 80 g/ha, scored visually after about 3 weeks, 100% = plants have died, 0% = like control plants
Description: as §2

Viola tricolor [13] = assay: as above; details: application rate 80 g/ha, scored visually after about 3 weeks, 100% = plants have died, 0% = like control plants
Description: as §2

Veronica persica [14] = assay: as above; details: application rate 80 g/ha, scored visually after about 3 weeks, 100% = plants have died, 0% = like control plants
Description: as §2

Cc1cnn(-c2ccc(C(F)(F)F)c(=O)n2C)c(=O)c1O [1-3, 4-hydroxy-5-methyl-2-(1-methyl-3-(trifluoromethyl)pyrid-2-on-6-yl)-pyridazin-3-one]
at least 80%: herbicidal activity in percent (efficacy) (Matricaria inodora [1]) | herbicidal activity in percent (efficacy) (Echinochloa crus galli [2]) | herbicidal activity in percent (efficacy) (Stellaria media [3]) | herbicidal activity in percent (efficacy) (Setaria viridis [4]) | herbicidal activity in percent (efficacy) (Amaranthus retroflexus [5]) | herbicidal activity in percent (efficacy) (Viola tricolor [6]) | herbicidal activity in percent (efficacy) (Veronica persica [7]) | herbicidal activity in percent (efficacy) (Abutilon theophrasti) | herbicidal action in percent (efficacy) (Matricaria inodora [8]) | herbicidal action in percent (efficacy) (Echinochloa crus galli [9]) | herbicidal action in percent (efficacy) (Stellaria media [10]) | herbicidal action in percent (efficacy) (Setaria viridis [11]) | herbicidal action in percent (efficacy) (Ipomoea purpurea) | herbicidal action in percent (efficacy) (Amaranthus retroflexus [12]) | herbicidal action in percent (efficacy) (Viola tricolor [13]) | herbicidal action in percent (efficacy) (Veronica persica [14])
